Source: paper PMC5078989, “Targeted inhibition of the COP9 signalosome for treatment of cancer” (Nature Communications, 2016)
pEC50: −log10 of the molar value.

System: panel of cancer cell lines
Experiment: Cell viability (CellTiter-Glo) dose-response across cancer cell line panel;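 for pEC50: after 72 h compound incubation with CellTiter-Glo ATP readout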
Format: cell-based, human
Conditions: for pEC50: Homo sapiens
Excerpt: Next, we explored the effect of CSN5 inhibition on the viability of cancer cells. To obtain a comprehensive picture, we generated dose–response curves with a CSN5 inhibitor across more than 500 cancer cell lines in a previously described standardized setting[47] (Supplementary Data 1).
A standardized CellTiter-Glo Assay (Promega #G7570) based on the quantification of ATP was applied according to the manufacturer's protocol to measure the amount of viable cells in culture. In brief, cells were seeded into 384-well plates at optimal density for each cell line. After 4 h, compounds were added at different concentrations in growth medium and incubated for another 72 h in a humidifying chamber at 37 °C and 5% CO2. […] EC50 values were calculated from the plot of percentage of inhibition versus inhibitor concentration using the nonlinear regression analysis software Origin 7.5SR6 (OriginLab Corp.).

- pEC50 (59M): 6.20
- pEC50 (92.1): 6.67
- pEC50 (639-V): 6.72
- pEC50 697: 6.43
- pEC50 (769-P): 6.70
- pEC50 (786-0, 786-O): 6.43
- pEC50 (1321-N1, 1321N1): 6.52
- pEC50 (8505C): 6.57
- pEC50 (A4/Fuk): 6.47
- pEC50 (A101D): 6.40
- pEC50 (A 172, A172): 6.74
- pEC50 (A204, A-204): 6.57
- pEC50 (A498, A-498): 6.61
- pEC50 (A549, A549): 5.44
- pEC50 (A673, A-673): 7.05
- pEC50 (A704, A-704): 6.21
- pEC50 (A2058, A2058): 6.50
- pEC50 (A2780, A2780): 6.48
- pEC50 (A-375, A-375): 6.55
- pEC50 (ACC-MESO-1, ACC-MESO-1): 5.81
- pEC50 (AM-38, AM-38): 6.53
- pEC50 (AML-193): 6.05
- pEC50 (AN3-CA, AN3 CA): 6.51
- pEC50 (AU565, AU565): 6.30
- pEC50 (BC-3C): 5.71
- pEC50 (BEN): 5.96
- pEC50 (BFTC-909, BFTC-909): 6.19
- pEC50 (BHY): 5.73
- pEC50 (BICR 6): 6.74
- pEC50 (BICR 16): 6.66
- pEC50 (BICR 18): 4.94
- pEC50 (BICR 31): 6.81
- pEC50 (BT-16, BT-16): 7.01
- pEC50 (BT-474, BT-474): 6.06
- pEC50 (BT-549, BT-549): 6.42
- pEC50 (BXPC-3, BxPC-3): 6.28
- pEC50 (C3A): < 4.52
- pEC50 (C32, C32): 5.94
- pEC50 (CAKI-1, Caki-1): 6.49
- pEC50 (CAKI-2, Caki-2): 5.63
- pEC50 (CAL-12T): 5.92
- pEC50 (CAL-27, CAL 27): 6.79
- pEC50 (CAL-29): 6.55
- pEC50 (CAL-54, CAL-54): 6.11
- pEC50 (CAL-85-1, CAL-85-1): 6.84
- pEC50 (CAL-120, CAL-120): 6.81
- pEC50 (CAL-148, CAL-148): < 4.52
- pEC50 (CAMA-1, CAMA-1): 7.03
- pEC50 (CAPAN-1, Capan-1): 6.52
- pEC50 (CAS-1): 4.85
- pEC50 (CCRF-HSB-2, CCRF-HSB-2): 6.53
- pEC50 (CEM/C1, CEMC1): 6.59
- pEC50 (CFPAC-1, CFPAC-1): 6.15
- pEC50 (CL-34): 7.05
- pEC50 (CMK): 6.86
- pEC50 (CMK-86, CMK-86): 6.64
- pEC50 (COLO 201, COLO 201): 6.57
- pEC50 (COLO 205, COLO 205): 6.57
- pEC50 (COLO 320, COLO-320): 6.05
- pEC50 (COLO 699, COLO-699): 6.05
- pEC50 (COLO 704, COLO-704): 6.42
- pEC50 (COLO-678, COLO-678): 5.31
- pEC50 (COLO-679, COLO-679): 6.88
- pEC50 (COLO-741, COLO 741): 6.89
- pEC50 (COLO-829, COLO 829): 6.50
- pEC50 (COR-L23, COR-L23): 5.78
- pEC50 (COR-L47, COR-L47): 7.30
- pEC50 (COR-L105, COR-L105): 6.33
- pEC50 (COV362, COV362): 6.76
- pEC50 (COV644): 4.63
- pEC50 (CW-2, CW-2): 5.20
- pEC50 (Calu-1, Calu-1): 5.63
- pEC50 (Calu-6, Calu-6): 6.53
- pEC50 (ChaGo-K-1, ChaGo-K-1): 6.11
- pEC50 (Ci-1, CI-1): 7.55
- pEC50 (DAN-G): 5.38
- pEC50 (DB): 6.14
- pEC50 (DLD-1, DLD-1): 6.19
- pEC50 (DMS-53, DMS 53): 4.64
- pEC50 (DMS-153, DMS 153): 7.37
- pEC50 (DMS-273, DMS 273): 6.02
- pEC50 (DND41, DND-41): 6.29
- pEC50 (DU-4475, DU4475): 7.00
- pEC50 (Daoy): 6.62
- pEC50 (Detroit 562, Detroit 562): 6.32
- pEC50 (EBC-1, EBC-1): 6.47
- pEC50 (EFM-19, EFM-19): 5.86
- pEC50 (EOL1, EOL-1): 7.18
- pEC50 (FaDu): 6.64
- pEC50 (G-401, G-401): 5.81
- pEC50 (G-402, G-402): 6.09
- pEC50 (GAMG): 6.43
- pEC50 (GB-1, GB-1): 6.32
- pEC50 (GDM-1, GDM-1): 6.72
- pEC50 (GI-1, GI-1): 6.68
- pEC50 (GP2d): 6.12
- pEC50 (Granta-519, GRANTA-519): 6.93
- pEC50 (H4): 6.64
- pEC50 (HARA): 6.19
- pEC50 (HCC15, HCC-15): 6.38
- pEC50 (HCC44, HCC-44): 6.78
- pEC50 (HCC78, HCC-78): 6.74
- pEC50 (HCC95, HCC-95): 6.98
- pEC50 (HCC827, HCC827): 5.11
- pEC50 (HCC1143, HCC1143): 5.78
- pEC50 (HCC1187, HCC1187): 6.46
- pEC50 (HCC1500, HCC1500): 5.18
- pEC50 (HCC1588, HCC-1588): 5.86
- pEC50 (HCC1806, HCC1806): 7.15
- pEC50 (HCC1954, HCC1954): 6.38
- pEC50 (HCC4006, HCC4006): 5.82
- pEC50 (HCC-56): 5.61
- pEC50 (HCC-1359): 6.43
- pEC50 (HCC-1833): 5.63
- pEC50 (HCT-15, HCT-15): 6.03
- pEC50 (HD-MY-Z): 6.91
- pEC50 (HEC-50B): 6.02
- pEC50 (HEC-151): 6.65
Structure (SMILES): NS(=O)(=O)OC[C@@H]1C[C@@H](n2ccc3c(N[C@H]4CCc5ccccc54)ncnc32)C[C@@H]1O [MLN4924]
- AMAX (A4/Fuk): -96.9287
- AMAX (A101D): -92.8172
- AMAX (A549): -65.6237
- AMAX (A-704): -78.0973
- AMAX (AM-38): -93.2889
- AMAX (AU565): -66.5254
- AMAX (AsPC-1): -50.1525
- AMAX (BFTC-909): -84.6841
- AMAX (BHY): -77.3535
- AMAX (BICR 6): -87.6265
- AMAX (BICR 16): -96.2639
- AMAX (C32): -75.1217
- AMAX (COLO 201): -80.4634
- AMAX (Caki-1): -69.6053
- AMAX (FaDu): -85.8426
- AMAX (GP2d): -76.2986
- AMAX (HARA): -86.2104
- AMAX (HCC1143): -80.6145
- AMAX (HCC-15): -95.7573
- AMAX (HD-MY-Z): -88.7975
- AMAX (HEC-151): -95.1252
- AMAX (HEL): -97.9201
- AMAX (HLC-1): -88.3206
- AMAX (HLF): -88.8149
- AMAX (HSC-4): -89.1597
- AMAX (Hep3B): -41.8233
- pEC50 (HCC70, HCC70): 6.41
